Results from US20170304388A1, “NEW INDICATION OF CARDIOVASCULAR DRUGS FOR PREPARATION OF CANCER INHIBITION PHARMACEUTICAL COMPOSITION” (LAUNX BIOMEDICAL CO., LTD., priority 2014, published 2017).

What was measured:
Assay type in all cases: cell-based
TOV-21G = test: Cell viability analysis (WST-1), TOV-21G; conditions: Homo sapiens, TOV21G, 72 h, Table 4, repeated experiments, drug 10 μM, read-out: survival rate (viability) of cancer cells, TOV-21G
Description: (§1) Subculture the different types of cancer cells. The cancer cells includes lung cancer, gastric cancer, hepatic cancer, colon cancer, skin cancer, cervical cancer, prostate cancer, bladder cancer, breast cancer, leukemia, pancreatic cancer, ovarian cancer, tongue cancer, osteosarcoma, and renal cancer. The cell numbers were counted and reseed as 2×10^6 in cell culture plate/flask. Then, the culture medium for culturing the cell lines was added to a volume of 10 ml, and the cells were cultured for 2-3 days. Then, the cells were suspended for loading into 96-well plates. The cell number was 3000 cells and the volume of the culture medium was 100 ul each well.
(§2) Removing the original culture medium from 96-well plate. Then add 100 μl of commercially drug at a concentration of 10 μM per well. After 72 hours, add the diluted WST-1 reagent to the well with 100 μl/well, and the diluted WST-1 reagent was acquired from the dilution of 9:1 medium and WST-1 stock reagent. Finally, the total volume of each well are 200 μl/well. Culture the 96-well plate at 37° C. for 30 to 90 minutes. Detecting and calculating the survival rate of each cancer cells with an ELISA reader at OD450 nm. The lower viability of cancer cells represents better inhibition effect via the drugs. Otherwise, the higher viability of cancer cells represents worse inhibition effect via the drugs.
(§3) According to the above mentioned cardiovascular drugs for cancer growth inhibition in Table 3, the inventors took the repeat experiments for the cardiovascular drugs to check the growth inhibitory effects of cancer cells by the cardiovascular drugs. […] 4.

SAS = test: Cell viability analysis (WST-1), SAS; conditions: 72 h, Table 4, repeated experiments, drug 10 μM, read-out: survival rate (viability) of cancer cells, SAS
Description: as §1, §2, §3

[1] = test system: AGS (Gastric Adenocarcinoma); test: Cell viability analysis (WST-1), AGS; conditions: 72 h, Table 4, repeated experiments, drug 10 μM, WST-1, read-out: survival rate (viability) of cancer cells, AGS
BxPC-3 = test: Cell viability analysis (WST-1), BxPC-3; conditions: Homo sapiens, BXPC-3, 72 h, Table 4, repeated experiments, drug 10 μM, read-out: survival rate (viability) of cancer cells, BxPC-3
Description: as §1, §2, §3

MDA-MB231 = test: Cell viability analysis (WST-1), MDA-MB231; conditions: Homo sapiens, MDA-MB-231, 72 h, Table 4, repeated experiments, drug 10 μM, read-out: survival rate (viability) of cancer cells, MDA-MB231
[2] = test system: H1650 (Lung Adenocarcinoma); test: Cell viability analysis (WST-1), H1650; conditions: Homo sapiens, NCI-H1650, 72 h, Table 4, repeated experiments, drug 10 μM, WST-1, read-out: survival rate (viability) of cancer cells, H1650
Hep3B = test: Cell viability analysis (WST-1), Hep3B; conditions: Homo sapiens, Hep3B, 72 h, Table 4, repeated experiments, drug 10 μM, read-out: survival rate (viability) of cancer cells, Hep3B
Description: as §1, §2, §3

[3] = test system: A549 (Lung Adenocarcinoma); test: Cell viability analysis (WST-1), A549; conditions: Homo sapiens, A549, 72 h, Table 4, repeated experiments, drug 10 μM, WST-1, read-out: survival rate (viability) of cancer cells, A549
[4] = test system: MCF7 (Mammary Gland, Adenocarcinoma); test: Cell viability analysis (WST-1), MCF7; conditions: Homo sapiens, MCF7, 72 h, Table 4, repeated experiments, drug 10 μM, WST-1, read-out: survival rate (viability) of cancer cells, MCF-7
[5] = test system: LoVo (Colorectal Adenocarcinoma); test: Cell viability analysis (WST-1), LoVo; conditions: Homo sapiens, LoVo, 72 h, Table 4, repeated experiments, drug 10 μM, WST-1, read-out: survival rate (viability) of cancer cells, LoVo
[6] = test system: HepG2 (Hepatocellular Carcinoma); test: Cell viability analysis (WST-1), HepG2; conditions: Homo sapiens, HepG2, 72 h, Table 4, repeated experiments, drug 10 μM, WST-1, read-out: survival rate (viability) of cancer cells, HepG2
[7] = test system: PC3 (Prostate Adenocarcinoma); test: Cell viability analysis (WST-1), PC3; conditions: 72 h, Table 4, repeated experiments, drug 10 μM, WST-1, read-out: survival rate (viability) of cancer cells, PC-3
[8] = test system: MKN-45 (Gastric Adenocarcinoma); test: Cell viability analysis (WST-1), MKN-45; conditions: Homo sapiens, MKN-45, 72 h, Table 4, repeated experiments, drug 10 μM, WST-1, read-out: survival rate (viability) of cancer cells, MKN-45
T24 = test: Cell viability analysis (WST-1), T24; conditions: Homo sapiens, T-24, 72 h, Table 4, repeated experiments, drug 10 μM, read-out: survival rate (viability) of cancer cells, T24
Description: as §1, §2, §3

786-O = test: Cell viability analysis (WST-1), 786-O; conditions: Homo sapiens, 786-0, 72 h, Table 4, repeated experiments, drug 10 μM, read-out: survival rate (viability) of cancer cells, 786-O
Description: as §1, §2, §3

[9] = test system: TSGH-8301 (Urinary Bladder Carcinoma); test: Cell viability analysis (WST-1), TSGH-8301; conditions: 72 h, Table 4, repeated experiments, drug 10 μM, WST-1, read-out: survival rate (viability) of cancer cells, TSGH-8301
[10] = test system: A375 (Amelanotic Melanoma); test: Cell viability analysis (WST-1), A375; conditions: Homo sapiens, A-375, 72 h, Table 4, repeated experiments, drug 10 μM, WST-1, read-out: survival rate (viability) of cancer cells, A375
AsPC-1 = test: Cell viability analysis (WST-1), AsPC-1; conditions: Homo sapiens, ASPC1, 72 h, Table 4, repeated experiments, drug 10 μM, read-out: survival rate (viability) of cancer cells, AsPC-1
Description: as §1, §2, §3

U2OS = test: Cell viability analysis (WST-1), U2OS; conditions: Homo sapiens, U2OS, 72 h, Table 4, repeated experiments, drug 10 μM, read-out: survival rate (viability) of cancer cells, U2OS
Description: as §1, §2, §3

BCC = test: Cell viability analysis (WST-1), BCC; conditions: BCC, 72 h, Table 4, repeated experiments, drug 10 μM, read-out: survival rate (viability) of cancer cells, BCC
[11] = test system: HCT116 (Colorectal Carcinoma); test: Cell viability analysis (WST-1), HCT116; conditions: Homo sapiens, HCT-116, 72 h, Table 4, repeated experiments, drug 10 μM, WST-1, read-out: survival rate (viability) of cancer cells, HCT116
[12] = test system: HeLa (Cervix Adenocarcinoma); test: Cell viability analysis (WST-1), HeLa; conditions: Homo sapiens, HeLa, 72 h, Table 4, repeated experiments, drug 10 μM, WST-1, read-out: survival rate (viability) of cancer cells, HeLa
C-33A = test: Cell viability analysis (WST-1), C-33A; conditions: Homo sapiens, C-33-A, 72 h, Table 4, repeated experiments, drug 10 μM, read-out: survival rate (viability) of cancer cells, C-33A
Description: as §1, §2, §3

NIH-OVCAR-3 = test: Cell viability analysis (WST-1), NIH-OVCAR-3; conditions: Homo sapiens, OVCAR-3, 72 h, Table 4, repeated experiments, drug 10 μM, read-out: survival rate (viability) of cancer cells, NIH-OVCAR-3
Description: as §1, §2, §3

SMILES	viability at 10 µM (TOV-21G) [%]	viability at 10 µM (SAS) [%]	viability at 10 µM [1] [%]	viability at 10 µM (BxPC-3) [%]	viability at 10 µM (MDA-MB231) [%]	viability at 10 µM [2] [%]	viability at 10 µM (Hep3B) [%]	viability at 10 µM [3] [%]	viability at 10 µM [4] [%]	viability at 10 µM [5] [%]	viability at 10 µM [6] [%]	viability at 10 µM [7] [%]	viability at 10 µM [8] [%]	viability at 10 µM (T24) [%]	viability at 10 µM (786-O) [%]	viability at 10 µM [9] [%]	viability at 10 µM [10] [%]	viability at 10 µM (AsPC-1) [%]	viability at 10 µM (U2OS) [%]	viability at 10 µM (BCC) [%]	further results
COC(=O)C1=C(C)NC(C)=C(C(=O)OCC(C)C)C1c1ccccc1[N+](=O)[O-] (stereo not drawn) [Nisoldipine (Sular), Nisoldipine]	44.4	48.8	64.7	75.6	74.1	70	130	48.9	86.6	76.9	95.5	98.9	98	67.8	49.5	77.9	51.5	78.8	69.1	58.8	viability at 10 µM [11]: 77.4%; viability at 10 µM [12]: 76.9%; viability at 10 µM (C-33A): 66%; viability at 10 µM (NIH-OVCAR-3): 68.1%
C[C@@H]1O[C@@H](O[C@H]2C[C@@H](O)[C@]3(CO)[C@H]4[C@H](O)C[C@]5(C)[C@@H](C6=CC(=O)OC6)CC[C@]5(O)[C@@H]4CC[C@]3(O)C2)[C@H](O)[C@H](O)[C@H]1O [Ouabain]	15.9	20.2	16.6	27	44.5	38.7	33.4	15.1	29.1	39.7	38.1	25.8	53	17.6	14.5	43.6	18.4	20.1	22.8	25.6	viability at 10 µM [11]: 15.9%; viability at 10 µM [12]: 23.1%; viability at 10 µM (C-33A): 35.5%; viability at 10 µM (NIH-OVCAR-3): 42.3%
